From PMC4764904 (Scientific Reports, 2016)
Read-outs that look alike come from different tables or passages of the source. Marks after values point to notes of the source that are not given here. Where a SMILES comes first, the peptide text is derived from it. Where no end group is shown, it is not given here. [ ]: non-standard residue; d: D form. Cit = NC(=O)NCCC[C@H](N)C(=O)O; pGlu = O=C1CC[C@@H](C(=O)O)N1

Experiments:
[1] = target: T1, human GALR3 (Homo sapiens, UniProt O60755); test: SRE-luc reporter assay, GALR3; format: cell-based;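 also: luciferase activity read in cell lysates across rising peptide concentrations, EC50 being the agonist concentration giving half-maximal stimulation from a sigmoidal nonlinear fit, Gαqi routing Gi-coupled receptor signaling through Gq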
T1 construct: host or cells: HEK293 cells stably expressing Gαqi
T1 sequence (O60755 1-368): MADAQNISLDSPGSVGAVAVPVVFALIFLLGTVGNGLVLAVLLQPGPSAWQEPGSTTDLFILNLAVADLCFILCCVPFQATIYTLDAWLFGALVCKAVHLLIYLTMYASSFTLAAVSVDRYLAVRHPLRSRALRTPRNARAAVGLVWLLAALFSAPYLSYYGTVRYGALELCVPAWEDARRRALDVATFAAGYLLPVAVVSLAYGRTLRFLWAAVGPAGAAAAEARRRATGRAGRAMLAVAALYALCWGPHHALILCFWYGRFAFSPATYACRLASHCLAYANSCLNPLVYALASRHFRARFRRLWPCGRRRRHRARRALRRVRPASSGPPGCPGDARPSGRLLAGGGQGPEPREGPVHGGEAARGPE
Description: (§1) The generated mutant SPX peptides were incubated with cells expressing GALR2 and GALR3. […] The activities of the receptors were traced using the serum-response element-driven luciferase (SRE-luc) assay system.
(§2) The SRE-luc reporter vector and plasmid containing human GALR1, GALR2, or GALR3 were transfected into HEK293 cells that stably expressed Gqi protein. Cells were then treated with increasing concentrations of mutant peptides, and the receptor activities were determined using the SRE-luc reporter system.
(§3) HEK293 cells stably expressing Gαqi, which mediates Gαi-coupled receptor activation by stimulating Gαq-dependent signaling pathways[59], were maintained in Dulbecco’s modified Eagle’s medium (DMEM) supplemented with 10% FBS, 100 U/ml penicillin G, and 100 μg/ml streptomycin (Invitrogen). Cells were seeded in 48-well plates at a density of 2 × 10^4 cells per well, one day before transfection. A mixture containing 75 ng of the SRE-luc reporter construct, 75 ng of expression plasmid, and 2 μl of Effectene reagent (Qiagen, Chatsworth, CA, USA) was prepared and added to each well according to the manufacturer’s instructions. Cells were then maintained in serum-free DMEM for 16–18 h before treatment with the ligands. Approximately 48 h after transfection, cells were treated with the respective ligands for 6 h. Cells were lysed by the addition of 100 μl lysis buffer. The luciferase activity in 50 μl of cell extract was determined by a luciferase assay system according to the standard protocol for the Synergy 2 Multi-Mode Microplate Reader (BioTek, Winooski, VT, USA).
(§4) For in vitro studies data analysis was performed by nonlinear regression with a sigmoidal dose-response. The agonist concentrations that induced half-maximal stimulation (EC50) or half-maximal inhibition of binding (IC50) were calculated with GraphPad PRISM4 software (GraphPad Software Inc., San Diego, CA, USA). […] All data are presented as mean ± S.E. of at least three independent experiments and a P value of P < 0.05 was considered statistically significant.

[2] = target: T2, human GALR2 (Homo sapiens, UniProt O43603); test: SRE-luc reporter assay, GALR2; format: cell-based;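 also: luciferase activity read in cell lysates after exposure to rising peptide concentrations, EC50 being the agonist level giving half-maximal stimulation from a sigmoidal nonlinear regression fit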
T2 construct: host or cells: HEK293 cells stably expressing Gαqi
T2 sequence (O43603 1-387): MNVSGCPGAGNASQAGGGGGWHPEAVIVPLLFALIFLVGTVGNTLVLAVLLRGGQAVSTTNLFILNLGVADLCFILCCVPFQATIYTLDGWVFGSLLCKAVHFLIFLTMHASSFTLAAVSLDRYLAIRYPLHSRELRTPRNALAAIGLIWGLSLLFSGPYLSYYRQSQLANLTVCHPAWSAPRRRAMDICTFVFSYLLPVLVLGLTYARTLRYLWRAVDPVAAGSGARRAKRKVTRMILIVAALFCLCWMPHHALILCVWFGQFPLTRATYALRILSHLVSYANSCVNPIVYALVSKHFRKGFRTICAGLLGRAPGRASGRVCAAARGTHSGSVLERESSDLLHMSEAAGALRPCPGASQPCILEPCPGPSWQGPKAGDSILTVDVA
Description: as §1, §2, §3, §4

[3] = Peptide stability in FBS by residual IP3 production; format: in vitro ADME, bovine; settings: peptide 1 μM in 100% FBS, 37 °C, 0, 3, 6, 12, 24, 48, 72 h; residual activity read as IP3 production ([3H]-inositol) in HEK293 cells expressing GALR2; mean ± S.E., at least three independent experiments
Description: To investigate the effects of the modifications on proteolytic susceptibility, the functional activity of peptides that were incubated in 100% serum at 37 °C for 0, 3, 6, 12, 24, 48, and 72 h was determined via inositol 1,4,5-triphosphate (IP3) production in GALR2-expressing cells (Fig. 4A–C and Table 3). […] In addition, dAla4 and dGln14 substitutions contribute to longer longevity of the peptide in serum. In an additional experiment, we examined the degradation rates of the Qu mutant, as well as the Qu mutant with an N-terminal modification and/or dAla4 and dGln14 substitutions.
Figure 4 Stability of SPX mutants in the presence of FBS (A) Qu analogs in FBS (B) and human serum (C). Potency of Qu mutants toward GALR2 (D) and GALR3 (E). For stability of SPX mutants, peptides (1 μM) were incubated in serum for 0, 3, 6, 12, 24, 48, and 72 hrs. The remaining activities of the peptides were determined by measuring IP3 production by HEK293 cells that express GALR2 after the indicated times. IP3 production was expressed as percent change, where 100% indicates IP3 production by WT SPX incubated in FBS or human serum for 0 h. For potency of Qu mutants toward GALR2 and GALR3, the SRE-luc reporter vector and plasmid containing human GALR2 or GALR3 were transfected into HEK293 cells that stably expressed Gqi protein. Cells were then treated with increasing concentrations of mutant peptides, and the receptor activities were determined using the SRE-luc reporter system.
To evaluate the stability of SPX and its analogs in FBS or human serum, peptides were incubated at an initial concentration of 1 μM in 100% serum at 37 °C for 0, 3, 6, 12, 24, 48, and 72 hours. Residual peptide activity was then assessed by measuring IP3 in HEK293 cells expressing GALR2. For the IP3 assay, cells were seeded in 12-well plates at a density of 2.5 × 10^5 cells per well, and then the next day, cells were transiently transfected with 1 μg/well of plasmid containing GALR2 using the Lipofectamine 2000 (Invitrogen) transfection reagent. The day following transfection, cells were incubated in M199 media containing 1% FBS, 1% L-glutamine, 1% penicillin/streptomycin, and 1 μCi/well of myo-^3H inositol for 20 h. After a 30-min incubation in buffer A (140 mM NaCl, 20 mM Hepes, 4 mM KCl, 8 mM D-glucose, 1 mM MgCl2, 1 mM CaCl2, 1 mg/ml free fatty acid bovine serum albumin (BSA), and 10 mM LiCl at pH 7.2), cells were treated with the agonist for 40 min at 37 °C. Media was removed, and the reactions were terminated by addition of 1 ml of 10 mM cold formic acid to each well. The plates were stored at 4 °C for 30 min, and the extracts were then transferred into 6-ml plastic tubes containing 500 μl AG1–8X anion exchange columns (BIO-RAD). The tubes were gently mixed with a vortexer, and the supernatants were removed by aspiration. Two washes with 1 ml of distilled water were performed followed by two additional washes with 60 mM ammonium formate/5mM sodium tetraborate. Tritiated inositol was separated from the column by elution with 1 ml of 1 M ammonium formate/0.1 M formic acid, and 800 μl from the elution were taken from each tube and transferred into 6-ml scintillation vials. Then, 2 ml of scintillation cocktail solution (Ultima Gold^TM, Perkin Elmer, Waltham MA, USA) was added to each sample. The radioactivity of [^3H]-myo-inositol samples was measured using a TRI carb 3100TR liquid scintillation analyzer (Packard).

[4] = HEK293-Gqi cells transfected with SRE-luc and human GALR3, 6 h ligand treatment, mean ± S.E. of at least three independent experiments, NM = not measurable, read-out: GALR3 EC50
[5] = HEK293-Gqi cells transfected with SRE-luc and human GALR2, 6 h ligand treatment, mean ± S.E. of at least three independent experiments, NM = not measurable, read-out: GALR2 EC50

Row | Compound | EC50 [1, 4] [nM] | EC50 [2, 5] [nM] | Half-life activity (h) in FBS [3] | EC50 [1] [nM] | EC50 [2] [nM]
1 | CSCC[C@H](NC(=O)[C@H](C)NC(=O)[C@H](CCC(N)=O)NC(=O)[C@@H]1CCCN1C(=O)[C@@H](NC(=O)[C@H](Cc1c[nH]c2ccccc12)NC(=O)[C@H](CC(N)=O)NC(C)=O)[C@@H](C)O)C(=O)N[C@@H](CC(C)C)C(=O)N[C@@H](Cc1ccc(O)cc1)C(=O)N[C@@H](CC(C)C)C(=O)N[C@@H](CCCCN)C(=O)NCC(=O)N[C@@H](C)C(=O)N[C@@H](CCC(N)=O)C(N)=O [Ac-N1] | 81.3 ± 16.7 | 58.9 ± 11 | 8.7 ± 0.6 ^a h | – | –
2 | CSCC[C@H](NC(=O)[C@H](C)NC(=O)[C@H](CCC(N)=O)NC(=O)[C@@H]1CCCN1C(=O)[C@@H](NC(=O)[C@H](Cc1c[nH]c2ccccc12)NC(=O)[C@@H](N)CCCNC(N)=O)[C@@H](C)O)C(=O)N[C@@H](CC(C)C)C(=O)N[C@@H](Cc1ccc(O)cc1)C(=O)N[C@@H](CC(C)C)C(=O)N[C@@H](CCCCN)C(=O)NCC(=O)N[C@@H](C)C(=O)N[C@@H](CCC(N)=O)C(N)=O [Cit1] (H-[Cit]WTPQAMLYLKGAQ-NH2) | 251 ± 65 | 61.7 ± 19 | – | – | –
3 | CSCC[C@H](NC(=O)[C@H](C)NC(=O)[C@H](CCC(N)=O)NC(=O)[C@@H]1CCCN1C(=O)[C@@H](NC(=O)[C@H](Cc1c[nH]c2ccccc12)NC(=O)[C@H](CC(N)=O)NC(=O)OCC1c2ccccc2-c2ccccc21)[C@@H](C)O)C(=O)N[C@@H](CC(C)C)C(=O)N[C@@H](Cc1ccc(O)cc1)C(=O)N[C@@H](CC(C)C)C(=O)N[C@@H](CCCCN)C(=O)NCC(=O)N[C@@H](C)C(=O)N[C@@H](CCC(N)=O)C(N)=O [Fmoc] | 126 ± 25.9 | 77.6 ± 16 | 14.2 ± 0.2 ^a h | – | –
4 | CSCC[C@H](NC(=O)[C@@H](C)NC(=O)[C@H](CCC(N)=O)NC(=O)[C@@H]1CCCN1C(=O)[C@@H](NC(=O)[C@H](Cc1c[nH]c2ccccc12)NC(=O)[C@@H](N)CC(N)=O)[C@@H](C)O)C(=O)N[C@@H](CC(C)C)C(=O)N[C@@H](Cc1ccc(O)cc1)C(=O)N[C@@H](CC(C)C)C(=O)N[C@@H](CCCCN)C(=O)NCC(=O)N[C@@H](C)C(=O)N[C@@H](CCC(N)=O)C(N)=O [dA6] | 316 ± 47.1 | 209 ± 27 | – | – | –
5 | CSCC[C@H](NC(=O)[C@H](C)NC(=O)[C@H](CCC(N)=O)NC(=O)[C@@H]1CCCN1C(=O)[C@@H](NC(=O)[C@H](Cc1c[nH]c2ccccc12)NC(=O)[C@@H](N)CC(N)=O)[C@@H](C)O)C(=O)N[C@@H](CC(C)C)C(=O)N[C@@H](Cc1ccc(O)cc1)C(=O)N[C@@H](CC(C)C)C(=O)N[C@@H](CCCCN)C(=O)N[C@H](C)C(=O)N[C@@H](C)C(=O)N[C@@H](CCC(N)=O)C(N)=O [dA12] (H-NWTPQAMLYLK[dA]AQ-NH2) | 1410 ± 210 | 1230 ± 159 | – | – | –
6 | CSCC[C@H](NC(=O)[C@H](C)NC(=O)[C@H](CCC(N)=O)NC(=O)[C@@H]1CCCN1C(=O)[C@@H](NC(=O)[C@H](Cc1c[nH]c2ccccc12)NC(=O)[C@@H](N)CC(N)=O)[C@@H](C)O)C(=O)N[C@@H](CC(C)C)C(=O)N[C@@H](Cc1ccc(O)cc1)C(=O)N[C@H](CC(C)C)C(=O)N[C@@H](CCCCN)C(=O)NCC(=O)N[C@@H](C)C(=O)N[C@@H](CCC(N)=O)C(N)=O [dL10] | > 10000 | > 10000 | – | – | –
7 | CSCC[C@H](NC(=O)[C@H](C)NC(=O)[C@H](CCC(N)=O)NC(=O)[C@@H]1CCCN1C(=O)[C@H](NC(=O)[C@H](Cc1c[nH]c2ccccc12)NC(=O)[C@@H](N)CC(N)=O)[C@H](C)O)C(=O)N[C@@H](CC(C)C)C(=O)N[C@@H](Cc1ccc(O)cc1)C(=O)N[C@@H](CC(C)C)C(=O)N[C@@H](CCCCN)C(=O)NCC(=O)N[C@@H](C)C(=O)N[C@@H](CCC(N)=O)C(N)=O [dT3] | > 10000 | > 10000 | – | – | –
8 | CSCC[C@H](NC(=O)[C@H](C)NC(=O)[C@H](CCC(N)=O)NC(=O)[C@@H]1CCCN1C(=O)[C@@H](NC(=O)[C@H](Cc1c[nH]c2ccccc12)NC(=O)[C@@H](N)CC(N)=O)[C@@H](C)O)C(=O)N[C@@H](CC(C)C)C(=O)N[C@H](Cc1ccc(O)cc1)C(=O)N[C@@H](CC(C)C)C(=O)N[C@@H](CCCCN)C(=O)NCC(=O)N[C@@H](C)C(=O)N[C@@H](CCC(N)=O)C(N)=O [dY9] | > 10000 | > 10000 | – | – | –
9 | CSCC[C@H](NC(=O)[C@H](C)NC(=O)[C@H](CCC(N)=O)NC(=O)[C@@H]1CCCN1C(=O)[C@@H](NC(=O)[C@H](Cc1c[nH]c2ccccc12)NC(=O)[C@@H]1CCC(=O)N1)[C@@H](C)O)C(=O)N[C@@H](CC(C)C)C(=O)N[C@@H](Cc1ccc(O)cc1)C(=O)N[C@@H](CC(C)C)C(=O)N[C@@H](CCCCN)C(=O)NCC(=O)N[C@@H](C)C(=O)N[C@@H](CCC(N)=O)C(N)=O [pQ1] ([pGlu]WTPQAMLYLKGAQ-NH2) | 61.7 ± 10.4 | 35 ± 7.82 | – | – | –
10 | GWTPQAMLYLKGAQ-NH2 [G1] | 93.3 ± 20.9 | 36.3 ± 7.47 | – | – | –
11 | NWTLQAMLYLKGAQ-NH2 [L4] | 105 ± 17.6 | 58.9 ± 7.59 | – | – | –
12 | NWTPNAALYLFGAH-NH2 [N5A7F11H14] | 3020 ± 978 | 54.5 ± 10.8 | – | – | –
13 | NWTPNAALYLFGAQ-NH2 [N5A7F11] | > 10000 | 107 ± 20.1 | – | – | –
14 | NWTPNAMLYLKGAQ-NH2 [N5] | 501 ± 184 | 61.7 ± 12.7 | – | – | –
15 | NWTPQAALYLFGAQ-NH2 [A7F11] | > 10000 | 145 ± 27 | – | – | –
16 | NWTPQAALYLKGAQ-NH2 [A7] | 468 ± 69.6 | 38.9 ± 7.28 | – | – | –
17 | NWTPQAMGYLKGAQ-NH2 [G8] | 1230 ± 108 | 1020 ± 132 | – | – | –
18 | NWTPQAMLYLFGAQ-NH2 [F11] | – | – | – | 708 ± 119 | 49 ± 10.1
19 | NWTPQAMLYLKGAH-NH2 [Ha14] | 70.8 ± 10.5 | 53.7 ± 6.92 | – | – | –
20 | NWTPQAMLYLKGPQ-NH2 [P13] | 380 ± 49.1 | 38.9 ± 5.8 | – | – | –
21 | NWTPQAMLYLLGAQ-NH2 [L11] | 331 ± 62 | 36.3 ± 10 | – | – | –
